Earlier results on 1 molecule are cited in patent publication US6488942B1, “Disinfecting agent” (DDG Dental Devices GmbH, priority 1997, dated 2002).

Molecules are shown by their SMILES.

Consider `CC(=O)O.CC(=O)O.NC(=N\CCCCCC/N=C(N)/N=C(\N)Nc1ccc(Cl)cc1)/N=C(\N)Nc1ccc(Cl)cc1` [diacetate, Chlorhexidine diacetate], for which the solubility in water result is given as “soluble in water”.
